Values belong to the molecule of their own block, whether it stands above or below them.
Key:
[1] = target: T1, cathepsin B (Homo sapiens, UniProt P07858); test: Cleavage studies with cathepsin B (HPLC); format: biochemical
T1 construct: purchased Calbiochem, Germany
Method: For cleavage of 16 with cathepsin B, 150 μL of a 50 mM sodium acetate buffer containing 100 mM NaCl, 4 mM EDTA Na2 and 0.15 mg L-cysteine (pH 5.0). 6.7 μL cathepsin B solution (23.8 U/mg, from Calbiochem, Germany) were added to a 100 μL solution of 16 (300 μM in 50 mM sodium phosphate buffer, pH 7.0) and the solution incubated for 1 h at 37° C.
HPLC was carried out with a Symmetry300, C18, 5 μm (4.6×250 mm) HPLC using 15% acetonitrile and 85% 20 mM sodium phosphate buffer (pH 7.0) as mobile phase A and 30% acetonitrile and 70% 20 mM sodium phosphate buffer (pH 7.0) as mobile phase B. The gradient was 0 to 1.5 min 100% phase A, 1.5 to 20 min to 100% B, 20 min to 45 min 100% B, 45 to 55 min to 100% A. Flow 1 mL/min; injection volume: 50 μL.
A 176 μL stock solution of compound 23 [1.5 mM] was diluted with 9 μL cathepsin B (0.4 mg/mL, 23.8 U/mg, from Calbiochem, Germany) and 264 μL of buffer (50 mM sodium acetate, 100 mM NaCl, 4 mM EDTA, pH 5.0) containing L-cysteine (8 mM). The mixture was incubated at 37° C. and aliquots (65 μL) were taken after 0 min, 20 min, 40 min, 60 min and 120 min and analyzed by HPLC. […]

[2] = Binding studies to hydroxyapatite; details: pH 7.4, 37° C., 300 μM, hydroxyapatite 30 eq
Method: General procedure: In a falcon tube, the test compound was diluted in phosphate-buffer (4 mM Na2HPO4 containing 150 mM NaCl, pH 7.4) to obtain a solution with a concentration of 300 μM. Hydroxyapatite (30 eq) was added and the suspension was stirred well and incubated at 37° C. Another solution of the samples without hydroxyapatite was used as control. […] (4000 rpm, duration: 60 sec, Heraeus® Megafuge® 1.0) and the absorbance of the supernatant was measured with a spectrophotometer at a wavelength of 495 nm (ε495(doxorubicin)=10 650 M^−1 cm^−1). Each result represents the arithmetic average of three measurements and percent HA binding was calculated.

[3] = pH 5.0; cited from earlier work
[4] = Binding studies to native bone matrix; parameters: species or system bovine; details: after 4 h, pH 7.4, 37° C., 300 μM, about 50 mg bone piece
Method: For this binding assay, bovine bone fragments were cut into small pieces (6 mm×4 mm×1 mm). The bone pieces were left untreated, washed with water (bidest.) and with absolute ethanol and dried over night at room temperature. Then, in a falcon tube the prodrugs were dissolved in phosphate-buffer (4 mM Na2HPO4 containing 150 mM NaCl, pH 7.4) to obtain a concentration of 300 μM. Approximately 50 mg of an untreated bone piece was added to the clear red solution, and the samples were incubated under stirring at 37° C. After 4 h, the samples were centrifuged (4000 rpm, duration: 60 sec, Heraeus® Megafuge® 1.0), and the absorbance of the supernatant was measured with a spectrophotometer at a wavelength of 495 nm (ε495(doxorubicin)=10650 M^−1 cm^−1). Percent bone binding was calculated

[5] = Acid cleavage study of compound 14 (HPLC); format: physicochemical; details: pH 3.8 (phosphoric acid added), after 5 min at room temperature, 300 μM, reverse phase HPLC
Method: 1 mL of a 300 μM solution of 14 in 50 mM sodium phosphate buffer was prepared and a 50 μL sample was analyzed by reverse phase HPLC (see FIG. 1A). To 400 μL of this solution was added 4 μL concentrated phosphoric acid resulting in a pH value of 3.8.

SMILES: COc1cccc2c1C(=O)c1c(O)c3c(c(O)c1C2=O)C[C@@](O)(C(=O)CO)CC3O[C@H]1C[C@H](NC(=O)OCc2ccc(NC(=O)[C@H](C)NC(=O)[C@@H](NC(=O)CCCCCN3C(=O)CC(SCCCSCC(P(=O)(O)O)P(=O)(O)O)C3=O)C(C)C)cc2)[C@H](O)[C@H](C)O1 (stereo partly shown) [compound 23]
- cleavage to doxorubicin by cathepsin B ([1]; incubation 2 h at 37° C., pH 5.0, reversed phase HPLC): complete cleavage to doxorubicin
- percent HA binding ([2]; after 5 h): over 90%
- percent HA binding ([2]; after 24 h): ~100%
- percent HA binding ([2]; after one hour): approximately 50%

SMILES: COc1cccc2c1C(=O)c1c(O)c3c(c(O)c1C2=O)C[C@@](O)(C(=O)CO)CC3O[C@H]1C[C@H](NC(=O)OCc2ccc(NC(=O)C(CCCCN)NC(=O)C(Cc3ccccc3)NC(=O)CCCCCN3C(=O)CC(SCCCSCC(P(=O)(O)O)P(=O)(O)O)C3=O)cc2)[C@H](O)[C@H](C)O1 (stereo partly shown) [compound 16]
- cleavage to doxorubicin by cathepsin B ([1]; incubation 1 h at 37° C., buffer pH 5.0, reverse phase HPLC): complete cleavage to doxorubicin

SMILES: COc1cccc2c1C(=O)c1c(O)c3c(c(O)c1C2=O)C[C@@](O)(/C(CO)=N/NC(=O)CCCCCN1C(=O)C=CC1=O)C[C@@H]3O[C@H]1C[C@H](N)[C@H](O)[C@H](C)O1 [DOXO-EMCH, 6-maleimidocaproylhydazone derivative of doxorubicin]
- acid-sensitive cleavage releasing doxorubicin [3]: cleavable at pH 5.0

- percent bone binding [4]: no binding
SMILES: COc1cccc2c1C(=O)c1c(O)c3c(c(O)c1C2=O)C[C@@](O)(C(=O)CO)C[C@@H]3O[C@H]1C[C@H](N)[C@H](O)[C@H](C)O1 [doxorubicin]

SMILES: COc1cccc2c1C(=O)c1c(O)c3c(c(O)c1C2=O)C[C@@](O)(/C(CO)=N/NC(=O)CCCCCN1C(=O)CC(SCCCSCC(P(=O)(O)O)P(=O)(O)O)C1=O)C[C@@H]3OC1C[C@@H](N)[C@@H](O)[C@@H](C)O1 (stereo partly shown) [compound 14]
- cleavage to doxorubicin [5]: rapid cleavage to doxorubicin
- percent HA binding ([2]; after 5 h): ~80%
- percent HA binding ([2]; after one hour): approximately 50%
